Results published in ChEMBL document CHEMBL1151385, “Antineoplastic Agents 78. Isolation of Palystatins 1-3 From the Indian Ocean Palythoa liscia” (J Nat Prod, 1982).

Experiments:
Ehrlich = assay: In vivo cytotoxicity against mouse EAC cells; type: functional, organism-based
P388 = assay: In vivo cytotoxicity against mouse P388 cells assessed as life extension at 0.1 ug/kg; type: functional, organism-based

SMILES: C=C(/C=C\C[C@@H](O)[C@@H](O)[C@H](O)C/C=C/C=C\[C@@H](O)C[C@@H]1O[C@H](C[C@@H](O)[C@H](O)C[C@H]2O[C@H]([C@H](O)[C@H](O)CC[C@H](O)/C=C/[C@H](C)[C@@H](O)C[C@]3(O)O[C@H](C[C@@H](O)CCCCCCC[C@@]45C[C@@H](C)C[C@@](C)(O4)[C@@H](C[C@@H](C)CCCCC[C@@H](O)[C@H](O)[C@H](O)[C@@H](O)[C@H](O)[C@H]4O[C@H](C[C@H](O)[C@H](O)/C(C)=C/[C@H](O)C[C@@H](C)[C@H](O)C(=O)N/C=C/C(=O)NCCCO)[C@H](O)[C@@H](O)[C@@H]4O)O5)[C@H](O)[C@@H](O)[C@H]3O)C[C@@H](O)[C@@H]2O)[C@@H](O)[C@H](O)[C@H]1O)CC[C@H](O)[C@@H](O)[C@H](O)[C@H](C)C[C@H]1O[C@H](/C=C\[C@@H](O)CC[C@@H]2C[C@@H]3C[C@H](O2)[C@@H](CC[C@H]2O[C@H](CN)C[C@H]2O)O3)[C@@H](O)[C@H](O)[C@H]1O
- Activity (Ehrlich): 0.34 µg/kg
- Activity (P388): 32%
